Publication PMC12006171, “Marsupial cathelicidins: characterization, antimicrobial activity and evolution in this unique mammalian lineage” (Frontiers in Immunology, 2025)
Converted amounts (≈) assume the structure as drawn. Where two headings read alike, the source gives them in different places. Where a SMILES comes first, the peptide text is derived from it.

What was measured:
Format in all cases: cell-based
[1] = test system: six bacteria (S. aureus, E. coli, P. aeruginosa; ATCC and clinical isolate); settings: for Antibacterial (MIC <64ug/mL): synthesized mature peptide, antimicrobial screening Phase I, Y/N summary over bacteria tested, broth microdilution
Protocol: (§1) Antimicrobial testing of 78 cathelicidin MPs was performed in two phases as outlined in Figure 1 . In phase I, 40 peptides (27 extant and 13 ancestral) were selected for testing based on rank (outlined above) and similarity to published marsupial cathelicidins with known antimicrobial activity ([33], [41]–[43]). These peptides were tested against nine bacteria (Staphylococcus aureus ATCC 29213 and clinical isolate, Escherichia coli ATCC 25922 and clinical isolate, Pseudomonas aeruginosa ATCC 27853 and clinical isolate, Streptococcus agalactiae ATCC 12386 and clinical isolate, Streptococcus pneumoniae ATCC 49619) and three fungi (Candida krusei ATCC 6258, Candida parapsilosis ATCC 22019, and Candida albicans clinical isolate). Details regarding these strains are available in Supplementary Table 4 . The antimicrobial activity of cathelicidins was determined as the minimum inhibitory concentration (MIC), which was the lowest concentration of cathelicidin that prevented visible bacterial or fungal growth, relative to the negative control. […] Minimum bactericidal concentration (MBC) and/or minimum fungicidal concentration (MFC) was conducted to determine microbicidal versus static action. Activity against S. aureus ATCC, E. coli ATCC, and Pseudomonas aeruginosa ATCC 27853 was examined in the presence of divalent cations to determine the impact of inhibitors.
In phase II, the remaining 38 peptides (37 extant and one ancestral) were tested against six bacteria (S. aureus ATCC and clinical isolate, E. coli ATCC and clinical isolate, and P. aeruginosa ATCC and clinical isolate). […] No further testing on phase II peptides was performed. Detailed methods for all assays are provided in subsequent sections.
(§2) Antimicrobial activity was determined using a broth microdilution susceptibility assay in 96 well polypropylene plates according to Clinical Laboratory Standards Institute guidelines M07-A and M26A as described previously ([33], [42], [43]). The bacterial and fungal isolates from humans and animals used in this study are outlined in Supplementary Table 4 . Only yeasts were included in the panel of fungi as they have been used in the susceptibility testing of eutherian ([3], [81]–[83]) and other marsupial cathelicidins previously ([33], [42], [43]). Cathelicidin mature peptides were solubilized in DMSO and serially diluted in duplicate from 128-0.25μg/mL in a final volume of 100µL. For bacteria, cathelicidins were diluted in Mueller Hinton Broth (MHB) with or without 10% lysed horse blood, and with (MH II B) or without (MHB) calcium and magnesium cations. For fungi, cathelicidins were diluted in Roswell Park Memorial Institute medium (RPMI)-1640 MOPS. Ampicillin or tetracycline were included as a positive control for Gram-positive and -negative bacteria respectively, while amphotericin B was used for fungi. A media-only negative control and growth control (no cathelicidin) were also included on each plate. Bacteria were sub-cultured on Muller Hinton agar (MHA) or sheep blood agar (BA), and fungi on Sabouraud dextrose agar (SAB), 20–24 hours prior to the test. Colonies were suspended in saline, the concentration adjusted to a 0.5 McFarland standard, and then diluted in media to a concentration of 1.0 x 10^6 cells/mL. Then, 100μL was added to each well of the cathelicidin dilution plate, giving a final inoculum density of 5 x 10^5 CFU/mL and cathelicidin concentration of 64-0.125μg/mL. Colony counts were performed on MHA/BA/SAB to confirm inoculum density. All plates were incubated at 35°C for 20–24 hours, depending on the strain.
(§3) Colonies were counted and compared to the colony count of the starting inoculum.

[2] = test system: Staphylococcus aureus clinical isolate - animal; test: microbe, parasite or virus in culture; settings: clinical isolate - animal
Outline: (§4)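 Bacteria at a final 5 x 10^5 CFU/mL were incubated 20–24 h at 35 °C with DMSO-solubilized peptides serially diluted to 64–0.125 μg/mL in Mueller Hinton broth (± lysed horse blood, ± divalent cations). MIC read as no visible growth; bactericidal action from colony counts compared with the inoculum.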

[3] = test system: Staphylococcus aureus ATCC 29213; test: microbe, parasite or virus in culture; settings: ATCC 29213
Outline: as §4

[4] = test system: Escherichia coli clinical isolate - animal; test: microbe, parasite or virus in culture; settings: clinical isolate - animal
Outline: as §4

[5] = test system: Pseudomonas aeruginosa clinical isolate - animal; test: microbe, parasite or virus in culture; settings: clinical isolate - animal
Outline: as §4

[6] = test system: Pseudomonas aeruginosa ATCC 27853; test: microbe, parasite or virus in culture; settings: ATCC 27853; read-out: MIC P. aeruginosa ATCC
Outline: as §4

[7] = test system: Escherichia coli ATCC 25922; test: microbe, parasite or virus in culture; settings: ATCC 25922
Outline: as §4

[8] = test system: Streptococcus agalactiae Clinical isolate - animal; test: microbe, parasite or virus in culture; settings: clinical isolate - animal
Outline: (§5)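 MIC defined as lowest peptide level preventing visible growth after 20–24 h at 35°C. Candida tested in RPMI-1640 MOPS; bacteria in Mueller Hinton broth, optionally with 10% lysed horse blood and/or divalent cations. Final peptide range 64-0.125 μg/mL, starting inoculum 5 x 10^5 CFU/mL, per CLSI M07-A/M26A.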

[9] = test system: Candida parapsilosis ATCC 22019; test: microbe, parasite or virus in culture; settings: ATCC 22019
Outline: as §5

Candida krusei ATCC 6258 = test: microbe, parasite or virus in culture; settings: ATCC 6258
Outline: as §5

[10] = test system: Streptococcus agalactiae ATCC 12386; test: microbe, parasite or virus in culture; settings: ATCC 12386; read-out: MIC S. agalactiae ATCC
Outline: as §5

[11] = test system: Streptococcus pneumoniae ATCC 49619; test: microbe, parasite or virus in culture; settings: ATCC 49619; read-out: MIC S. pneumoniae ATCC
Outline: as §5

[12] = test system: Candida albicans Clinical isolate - human; test: microbe, parasite or virus in culture; settings: Clinical isolate - human
Outline: as §5

[13] = test system: Staphylococcus aureus clinical isolate – animal, methicillin-resistant (MRSA); settings: clinical isolate – animal, methicillin-resistant
Outline: as §5

[14] = test system: Staphylococcus aureus clinical isolate – animal, penicillin-resistant (PRSA); settings: clinical isolate – animal, penicillin-resistant (PRSA)
Outline: as §5

[15] = test system: three fungi (Candida krusei, Candida parapsilosis, Candida albicans); test: Antifungal screening, summary over the panel of fungi (broth microdilution); settings: synthesized mature peptide; antimicrobial screening Phase I; Y/N summary over fungi tested, broth microdilution
Protocol: as §1, §2, §3

[16] = read-out: MIC in the presence of cations E. coli ATCC

Compound | MBC S. aureus [2] | MBC S. aureus ATCC [3] | MBC E. coli [4] | MIC E. coli [4] | MIC in the presence of cations E. coli [4] | MIC ([5]; read-out: MIC P. aeruginosa) [µM] | MIC [6] [µM] | MBC E. coli ATCC [7] [µM] | MIC ([7]; read-out: MIC E. coli ATCC) [µM] | MIC [7, 16] [µM] | MFC C. parapsilosis ATCC [9] [µM] | MIC C. parapsilosis ATCC [9] [µM] | MFC C. krusei ATCC (Candida krusei ATCC 6258) [µM] | MIC C. krusei ATCC (Candida krusei ATCC 6258) [µM] | MIC [10] [µM] | MIC [11] [µM] | MBC MRSA [13] [µM] | MIC MRSA [13] [µM] | Antibacterial (MIC <64ug/mL) [1] | Antifungal (MIC <64ug/mL) [15] | also measured
CC[C@H](C)[C@H](NC(=O)[C@H](CCCNC(=N)N)NC(=O)[C@H](CC(=O)O)NC(=O)[C@H](Cc1c[nH]c2ccccc12)NC(=O)[C@@H](NC(=O)[C@H](CCCNC(=N)N)NC(=O)[C@H](CCCNC(=N)N)NC(=O)[C@@H](NC(=O)[C@H](CC(C)C)NC(=O)[C@H](CCCNC(=N)N)NC(=O)CNC(=O)[C@H](CC(C)C)NC(=O)[C@H](CCCNC(=N)N)NC(=O)CNC(=O)[C@H](CCCNC(=N)N)NC(=O)[C@@H](N)CCCCN)[C@@H](C)CC)[C@@H](C)CC)C(=O)N[C@@H](CCCNC(=N)N)C(=O)NCC(=O)NCC(=O)O [MyfaCath7] (H-KRGRLGRLIRRIWDRIRGG-OH) | 3.4 (3.4)^3.4 µM | 3.4 (3.4)^3.4 µM | 1.7 (1.7)^1.7 µM | 1.7 (1.7)^1.7 µM | 1.7 (1.7)^1.7 µM | 13.7 (≈ 32 µg/mL) | >27.4 | 1.7 (≈ 3.97 µg/mL) | 1.7 (≈ 3.97 µg/mL) | 3.4 | 13.7 (≈ 32 µg/mL) | 13.7 (≈ 32 µg/mL) | 6.8 (≈ 15.9 µg/mL) | 6.8 (≈ 15.9 µg/mL) | >27.4 | >27.4 | 3.4 (≈ 7.94 µg/mL) | 3.4 (≈ 7.94 µg/mL) |  |  | MIC against at least one strain [1]: 4 µg/mL (≈ 1.71 µM); MIC S. aureus [2]: 3.4 (3.4)^3.4 µM; MIC in the presence of cations S. aureus [2]: 3.4 (3.4)^3.4 µM; MIC S. aureus ATCC [3]: 3.4 (3.4)^3.4 µM; MIC in the presence of cations S. aureus ATCC [3]: 3.4 (3.4)^3.4 µM; MBC P. aeruginosa [5]: > 27.4 µM; MIC ([5]; read-out: MIC in the presence of cations P. aeruginosa): 27.4 µM; MBC S. agalactiae [8]: 13.7 µM (≈ 32 µg/mL); MIC S. agalactiae [8]: 13.7 µM (≈ 32 µg/mL); MFC C. albicans [12]: 27.4 µM (≈ 64 µg/mL); MIC C. albicans [12]: 27.4 µM (≈ 64 µg/mL); MBC PRSA [14]: 1.7 µM (≈ 3.97 µg/mL); MIC PRSA [14]: 1.7 µM (≈ 3.97 µg/mL)
CC[C@H](C)[C@H](NC(=O)[C@H](CCCNC(=N)N)NC(=O)[C@@H](NC(=O)[C@H](CCCNC(=N)N)NC(=O)[C@@H](N)CCCCN)[C@@H](C)CC)C(=O)N[C@@H](CC(C)C)C(=O)NCC(=O)N[C@@H](CCCNC(=N)N)C(=O)N[C@@H](CC(C)C)C(=O)N[C@@H](Cc1c[nH]c2ccccc12)C(=O)N[C@@H](CC(=O)O)C(=O)NCC(=O)N[C@@H](CC(C)C)C(=O)N[C@@H](CCCNC(=N)N)C(=O)N[C@@H](CC(N)=O)C(=O)N[C@@H](CC(C)C)C(=O)NCC(=O)N[C@@H](CC(N)=O)C(=O)N[C@@H](CCCNC(=N)N)C(=O)N[C@H](C(=O)N[C@@H](CCCNC(=N)N)C(=O)N[C@@H](CC(N)=O)C(=O)N[C@@H](CCCNC(=N)N)C(=O)N[C@H](C(=O)N[C@@H](CCCNC(=N)N)C(=O)N[C@@H](CC(=O)O)C(=O)N[C@@H](Cc1ccccc1)C(=O)N[C@@H](Cc1ccccc1)C(=O)N[C@@H](CO)C(=O)O)[C@@H](C)CC)[C@@H](C)CC [MyfaCath5] (H-KRIRILGRLWDGLRNLGNRIRNRIRDFFS-OH) | 8.8 µM (≈ 31.8 µg/mL) | 17.7 µM (≈ 63.9 µg/mL) | 8.8 (8.8)^8.8 µM | 8.8 (8.8)^8.8 µM | 8.8 (8.8)^8.8 µM | >17.7 | >17.7 | 17.7 (≈ 63.9 µg/mL) | 8.8 (≈ 31.8 µg/mL) | 8.8 | 17.7 (≈ 63.9 µg/mL) | 17.7 (≈ 63.9 µg/mL) | 4.4 (≈ 15.9 µg/mL) | 4.4 (≈ 15.9 µg/mL) | >17.7 | >17.7 | 8.8 (≈ 31.8 µg/mL) | 8.8 (≈ 31.8 µg/mL) |  |  | MIC ([2]; read-out: MIC S. aureus): 4.4 µM (≈ 15.9 µg/mL); MIC ([2]; read-out: MIC in the presence of cations S. aureus): 4.4 µM; MIC ([3]; read-out: MIC S. aureus ATCC): 8.8 µM (≈ 31.8 µg/mL); MIC ([3]; read-out: MIC in the presence of cations S. aureus ATCC): 4.4 µM; MIC ([8]; read-out: MIC S. agalactiae): >17.7 µM; MIC ([12]; read-out: MIC C. albicans): >17.7 µM; MBC PRSA [14]: 2.2 µM (≈ 7.95 µg/mL); MIC PRSA [14]: 2.2 µM (≈ 7.95 µg/mL)
KRFGFRWFIRTLLRFRGEKVKTRFIFAIEKLIDT [MAP12, marsupial ancestral peptide, predicted by ANCESCON and GASP, synthesized] |  |  |  |  |  |  |  |  |  |  |  |  |  |  |  |  |  |  | N (Antibacterial (MIC <64ug/mL)) | N (Antifungal (MIC <64ug/mL)) | 
RQIYDQAKYDILTGILRNF [BepeCath8] |  |  |  |  |  |  |  |  |  |  |  |  |  |  |  |  |  |  | N (Antibacterial (MIC <64ug/mL)) | N (Antifungal (MIC <64ug/mL)) | 
RQRRLPFLGDPRRFPRPRGRPQPDPRQGRPN [MAP4, marsupial ancestral peptide, predicted by ANCESCON and GASP, synthesized] |  |  |  |  |  |  |  |  |  |  |  |  |  |  |  |  |  |  | N (Antibacterial (MIC <64ug/mL)) | N (Antifungal (MIC <64ug/mL)) | 
